According to the SangsterLogP compilation:

Test: method code SF-AS, from DOI: 10.1080/10826079608005496
`CC(C)OC(=O)CSc1ccc([N+](=O)[O-])cc1[N+](=O)[O-]` showed a logP of 2.72. Compound `CC(C)OC(=O)CS(=O)c1ccc([N+](=O)[O-])cc1Cl` (stereo not drawn) has a logP of 2.04. Compound `CC(C)OC(=O)CS(=O)(=O)c1ccc([N+](=O)[O-])cc1Cl` has a logP of 2.12. With `COC(=O)CSc1ccc([N+](=O)[O-])cc1Cl` the logP was 2.66. `COC(=O)CSc1ccc(Cl)cc1[N+](=O)[O-]` gave a logP of 2.5. `CC(C)OC(=O)CS(=O)(=O)c1ccc([N+](=O)[O-])cc1` showed a logP of 1.79. Work on `COC(=O)CS(=O)(=O)c1ccc(Cl)cc1[N+](=O)[O-]` yielded a logP of 1.6. `CC(C)OC(=O)CSc1ccc(Cl)cc1[N+](=O)[O-]` showed a logP of 3.14. Compound `CC(C)OC(=O)CSc1ccc([N+](=O)[O-])cc1Cl` has a logP of 3.29. Work on `CC(C)OC(=O)CS(=O)(=O)c1ccccc1[N+](=O)[O-]` yielded a logP of 1.6. For `COC(=O)CS(=O)c1ccc([N+](=O)[O-])cc1[N+](=O)[O-]` (stereo not drawn), the logP was 0.79. `CC(C)OC(=O)CSc1ccc([N+](=O)[O-])cc1` gave a logP of 2.66. Compound `CC(C)OC(=O)CS(=O)(=O)c1ccc(Cl)cc1[N+](=O)[O-]` has a logP of 2.24.
